Source: ChEMBL document CHEMBL3351286, “Strategies to inhibit tumor associated integrin receptors: rationale for dual and multi-antagonists” (J Med Chem, 2014)
Each block holds one molecule with its values, some of them ahead of it.

Key:
Integrin alpha-V/beta-3 [1] = biological target: T1, Integrin alpha-V/beta-3 (Homo sapiens, UniProt P05106+P06756); assay: Antagonist activity at alphavbeta3 integrin receptor (unknown origin) by cell-free ELISA; type: protein-complex assay
Integrin alpha-V/beta-5 [2] = biological target: T2, Integrin alpha-V/beta-5 (Homo sapiens, UniProt P06756+P18084); assay: Antagonist activity at alphavbeta5 integrin receptor (unknown origin) by cell-free ELISA; type: protein-complex assay
[3] = biological target: Integrin alpha-IIb/beta-3 (Homo sapiens, UniProt P05106+P08514); assay: Antagonist activity at alpha2bbeta3 integrin receptor (unknown origin) by cell-free ELISA; type: protein-complex assay
Integrin alpha-V/beta-3 [4] = biological target: T1, Integrin alpha-V/beta-3; assay: Antagonist activity at alphavbeta3 integrin receptor (unknown origin) by cell-based ELISA
Integrin alpha-V/beta-5 [5] = biological target: T2, Integrin alpha-V/beta-5; assay: Antagonist activity at alphavbeta5 integrin receptor (unknown origin) by cell-based ELISA
Integrin alpha-5/beta-1 [6] = biological target: T3, Integrin alpha-5/beta-1 (Homo sapiens, UniProt P05556+P08648); assay: Antagonist activity at alpha5beta1 integrin receptor (unknown origin) by cell-based ELISA
Integrin alpha-V/beta-3 [7] = biological target: T1, Integrin alpha-V/beta-3; assay: Antagonist activity at alphavbeta3 integrin receptor in HEK293 cells after 4 hrs using p-nitrophenyl phosphate by colorimetry; type: cell-based
[8] = biological target: Integrin alpha-V/beta-5 (Homo sapiens) [+]; assay: Antagonist activity at alphavbeta5 integrin receptor in HEK293 cells after 4 hrs using p-nitrophenyl phosphate by colorimetry
Integrin alpha-5/beta-1 [9] = biological target: T3, Integrin alpha-5/beta-1; assay: Antagonist activity at alpha5beta1 integrin receptor in K562 cells after 4 hrs using p-nitrophenyl phosphate by colorimetry; type: cell-based
Integrin alpha-V/beta-6 = Integrin alpha-V/beta-6 (Homo sapiens, UniProt P06756+P18564); assay: Antagonist activity at alphavbeta6 integrin receptor in human HT29 cells after 4 hrs using p-nitrophenyl phosphate by colorimetry; type: cell-based, HT-29
Integrin alpha-V/beta-1 [10] = biological target: T4, Integrin alpha-V/beta-1 (Homo sapiens, UniProt P05556+P06756); assay: Antagonist activity at alphavbeta1 integrin receptor in HEK293 cells after 4 hrs using p-nitrophenyl phosphate by colorimetry; type: cell-based
Integrin alpha-V/beta-8 = Integrin alpha-V/beta-8 (Homo sapiens, UniProt P06756+P26012); assay: Antagonist activity at human recombinant alphavbeta8 integrin receptor expressed in HEK293 cells after 4 hrs using p-nitrophenyl phosphate by colorimetry; type: cell-based
Integrin alpha-V/beta-1 [11] = biological target: T4, Integrin alpha-V/beta-1; assay: Antagonist activity at alphavbeta1 integrin receptor (unknown origin) by cell-based ELISA
Integrin alpha-5/beta-1 [12] = biological target: T3, Integrin alpha-5/beta-1; assay: Antagonist activity at alpha5beta1 integrin receptor (unknown origin) by cell-free ELISA; type: protein-complex assay
[13] = biological target: T5, Integrin alpha-IIb/beta-3 (Mus musculus, UniProt O54890+Q9QUM0); assay: Antagonist activity at mouse endothelial alpha2bbeta3 integrin receptor by cell adhesion assay; type: protein-complex assay
T5 sequence (Q9QUM0 whole entry): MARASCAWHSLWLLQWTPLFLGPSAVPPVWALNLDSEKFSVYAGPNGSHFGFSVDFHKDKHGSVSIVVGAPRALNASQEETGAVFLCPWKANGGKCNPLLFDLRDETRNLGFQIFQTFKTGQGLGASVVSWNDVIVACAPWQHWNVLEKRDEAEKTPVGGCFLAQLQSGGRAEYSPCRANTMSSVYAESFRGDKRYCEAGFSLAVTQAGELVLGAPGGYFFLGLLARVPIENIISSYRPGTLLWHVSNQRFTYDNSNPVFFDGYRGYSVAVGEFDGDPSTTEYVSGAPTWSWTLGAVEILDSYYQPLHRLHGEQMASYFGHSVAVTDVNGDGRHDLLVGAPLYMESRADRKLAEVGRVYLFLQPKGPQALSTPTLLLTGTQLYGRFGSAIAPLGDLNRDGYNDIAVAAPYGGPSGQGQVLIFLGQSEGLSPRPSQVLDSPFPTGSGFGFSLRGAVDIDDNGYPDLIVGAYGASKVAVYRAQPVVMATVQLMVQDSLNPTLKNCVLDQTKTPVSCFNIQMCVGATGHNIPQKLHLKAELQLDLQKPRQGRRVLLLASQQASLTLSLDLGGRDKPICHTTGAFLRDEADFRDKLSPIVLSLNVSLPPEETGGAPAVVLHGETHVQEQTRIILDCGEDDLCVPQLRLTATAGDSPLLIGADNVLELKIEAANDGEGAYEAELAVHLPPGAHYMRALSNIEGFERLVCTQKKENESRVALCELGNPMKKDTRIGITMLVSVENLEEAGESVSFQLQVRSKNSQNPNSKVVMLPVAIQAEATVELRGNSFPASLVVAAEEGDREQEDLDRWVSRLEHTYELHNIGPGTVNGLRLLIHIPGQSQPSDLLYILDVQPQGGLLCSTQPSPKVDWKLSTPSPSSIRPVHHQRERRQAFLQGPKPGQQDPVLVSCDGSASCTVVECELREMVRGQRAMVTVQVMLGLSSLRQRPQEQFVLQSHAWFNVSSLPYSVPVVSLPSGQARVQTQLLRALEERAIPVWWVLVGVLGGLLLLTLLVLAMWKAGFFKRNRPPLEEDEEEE
T5 sequence (O54890 whole entry): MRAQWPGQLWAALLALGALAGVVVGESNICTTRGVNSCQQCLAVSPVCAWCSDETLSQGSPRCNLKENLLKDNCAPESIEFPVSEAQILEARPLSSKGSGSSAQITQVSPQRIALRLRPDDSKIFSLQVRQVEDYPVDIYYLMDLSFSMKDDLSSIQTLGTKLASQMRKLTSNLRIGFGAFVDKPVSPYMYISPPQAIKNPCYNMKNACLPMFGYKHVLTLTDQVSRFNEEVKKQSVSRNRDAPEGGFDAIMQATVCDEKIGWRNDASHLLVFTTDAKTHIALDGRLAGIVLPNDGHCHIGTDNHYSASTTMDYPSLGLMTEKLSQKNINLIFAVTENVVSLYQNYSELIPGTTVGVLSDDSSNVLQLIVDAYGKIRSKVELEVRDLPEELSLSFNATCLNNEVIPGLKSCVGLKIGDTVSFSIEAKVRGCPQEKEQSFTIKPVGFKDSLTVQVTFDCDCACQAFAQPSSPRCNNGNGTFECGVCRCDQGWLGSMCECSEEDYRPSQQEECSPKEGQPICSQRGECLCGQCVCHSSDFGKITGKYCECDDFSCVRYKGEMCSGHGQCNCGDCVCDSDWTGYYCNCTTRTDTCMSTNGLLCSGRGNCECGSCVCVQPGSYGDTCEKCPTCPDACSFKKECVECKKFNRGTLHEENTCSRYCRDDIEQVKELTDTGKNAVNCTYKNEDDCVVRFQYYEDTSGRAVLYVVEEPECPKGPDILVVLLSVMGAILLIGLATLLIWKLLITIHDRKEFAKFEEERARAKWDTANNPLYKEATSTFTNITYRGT

Integrin alpha-V/beta-3 [14] = biological target: T6, Integrin alpha-V/beta-3 (Mus musculus, UniProt O54890+P43406); assay: Antagonist activity at mouse endothelial alphavbeta3 integrin receptor by cell adhesion assay; type: protein-complex assay
T6 sequence (O54890 whole entry): T5 sequence (O54890 whole entry)
T6 sequence (P43406 whole entry): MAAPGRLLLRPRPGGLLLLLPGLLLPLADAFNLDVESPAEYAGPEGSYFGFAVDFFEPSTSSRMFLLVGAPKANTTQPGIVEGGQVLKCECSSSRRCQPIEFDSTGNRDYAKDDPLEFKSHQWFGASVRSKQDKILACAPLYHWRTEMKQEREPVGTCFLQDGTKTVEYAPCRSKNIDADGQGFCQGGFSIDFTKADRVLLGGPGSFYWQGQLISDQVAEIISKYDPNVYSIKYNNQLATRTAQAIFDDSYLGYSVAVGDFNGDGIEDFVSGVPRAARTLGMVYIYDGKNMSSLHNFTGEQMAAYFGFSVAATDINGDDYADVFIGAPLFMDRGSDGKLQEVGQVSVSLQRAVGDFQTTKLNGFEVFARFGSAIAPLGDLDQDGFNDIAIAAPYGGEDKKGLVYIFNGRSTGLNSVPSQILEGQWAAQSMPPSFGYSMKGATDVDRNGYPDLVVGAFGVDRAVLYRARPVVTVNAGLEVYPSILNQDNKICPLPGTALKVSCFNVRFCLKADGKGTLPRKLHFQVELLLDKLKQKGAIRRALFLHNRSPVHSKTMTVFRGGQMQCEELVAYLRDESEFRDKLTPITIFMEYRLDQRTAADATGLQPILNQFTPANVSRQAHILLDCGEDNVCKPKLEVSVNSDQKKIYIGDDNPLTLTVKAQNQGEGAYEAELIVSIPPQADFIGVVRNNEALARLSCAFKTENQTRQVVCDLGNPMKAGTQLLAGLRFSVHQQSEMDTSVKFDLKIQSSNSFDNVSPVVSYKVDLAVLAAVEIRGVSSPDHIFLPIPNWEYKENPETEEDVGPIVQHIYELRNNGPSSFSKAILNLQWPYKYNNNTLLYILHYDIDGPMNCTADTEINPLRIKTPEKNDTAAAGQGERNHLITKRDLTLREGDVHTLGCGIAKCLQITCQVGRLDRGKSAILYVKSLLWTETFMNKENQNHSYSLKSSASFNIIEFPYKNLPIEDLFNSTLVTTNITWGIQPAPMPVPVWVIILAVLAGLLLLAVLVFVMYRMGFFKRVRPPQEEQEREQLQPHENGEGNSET

T2 sequence (P06756 31-889 limits assumed): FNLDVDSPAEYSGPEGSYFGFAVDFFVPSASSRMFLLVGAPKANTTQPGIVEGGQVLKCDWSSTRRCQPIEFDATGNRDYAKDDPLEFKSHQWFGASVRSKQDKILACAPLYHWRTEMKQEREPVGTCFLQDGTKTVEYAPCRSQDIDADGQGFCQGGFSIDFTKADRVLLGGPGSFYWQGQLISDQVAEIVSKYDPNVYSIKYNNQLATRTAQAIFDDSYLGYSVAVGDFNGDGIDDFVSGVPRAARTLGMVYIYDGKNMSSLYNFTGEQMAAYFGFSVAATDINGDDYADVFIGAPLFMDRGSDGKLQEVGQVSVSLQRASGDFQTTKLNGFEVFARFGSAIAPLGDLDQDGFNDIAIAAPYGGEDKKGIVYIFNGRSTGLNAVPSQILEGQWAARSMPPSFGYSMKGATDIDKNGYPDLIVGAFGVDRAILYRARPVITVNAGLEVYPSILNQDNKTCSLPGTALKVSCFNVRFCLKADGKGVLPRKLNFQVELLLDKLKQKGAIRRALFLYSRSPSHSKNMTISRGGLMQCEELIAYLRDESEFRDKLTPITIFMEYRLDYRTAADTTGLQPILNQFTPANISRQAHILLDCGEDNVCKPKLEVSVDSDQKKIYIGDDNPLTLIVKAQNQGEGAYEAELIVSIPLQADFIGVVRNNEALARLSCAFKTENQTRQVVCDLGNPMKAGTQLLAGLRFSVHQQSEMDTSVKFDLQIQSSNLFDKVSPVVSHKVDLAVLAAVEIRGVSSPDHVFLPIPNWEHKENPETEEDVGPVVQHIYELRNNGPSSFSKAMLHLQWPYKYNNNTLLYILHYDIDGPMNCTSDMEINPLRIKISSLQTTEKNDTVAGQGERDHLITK
T2 sequence (P06756 891-1048 limits assumed): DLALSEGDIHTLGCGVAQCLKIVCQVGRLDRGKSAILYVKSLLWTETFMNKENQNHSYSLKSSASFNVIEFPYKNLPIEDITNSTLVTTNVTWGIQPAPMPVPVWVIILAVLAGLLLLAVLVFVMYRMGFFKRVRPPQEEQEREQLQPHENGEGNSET
T2 sequence (P18084 24-799 limits assumed): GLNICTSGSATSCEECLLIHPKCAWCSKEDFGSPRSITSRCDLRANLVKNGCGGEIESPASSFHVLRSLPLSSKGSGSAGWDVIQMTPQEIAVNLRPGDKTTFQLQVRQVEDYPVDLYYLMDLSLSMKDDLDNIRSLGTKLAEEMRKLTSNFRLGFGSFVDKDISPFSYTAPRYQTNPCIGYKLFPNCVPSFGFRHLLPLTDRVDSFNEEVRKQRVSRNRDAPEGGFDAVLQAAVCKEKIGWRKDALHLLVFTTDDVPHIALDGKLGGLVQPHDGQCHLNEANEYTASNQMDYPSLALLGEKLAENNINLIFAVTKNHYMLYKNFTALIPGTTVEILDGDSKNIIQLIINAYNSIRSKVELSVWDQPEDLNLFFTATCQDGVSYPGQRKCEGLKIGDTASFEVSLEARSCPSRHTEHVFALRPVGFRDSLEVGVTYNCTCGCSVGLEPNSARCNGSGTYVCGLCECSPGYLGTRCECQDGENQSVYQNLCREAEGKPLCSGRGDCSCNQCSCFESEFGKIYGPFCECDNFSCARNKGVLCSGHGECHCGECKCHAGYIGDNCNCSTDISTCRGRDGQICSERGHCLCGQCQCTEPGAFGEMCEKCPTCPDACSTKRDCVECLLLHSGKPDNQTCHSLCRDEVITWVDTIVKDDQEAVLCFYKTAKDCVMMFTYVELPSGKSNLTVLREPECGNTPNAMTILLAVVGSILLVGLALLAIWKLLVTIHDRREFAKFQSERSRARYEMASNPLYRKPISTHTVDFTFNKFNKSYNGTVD
Sequence of Integrin alpha-IIb/beta-3 (Homo sapiens, UniProt P05106+P08514) (P05106 27-788 limits assumed): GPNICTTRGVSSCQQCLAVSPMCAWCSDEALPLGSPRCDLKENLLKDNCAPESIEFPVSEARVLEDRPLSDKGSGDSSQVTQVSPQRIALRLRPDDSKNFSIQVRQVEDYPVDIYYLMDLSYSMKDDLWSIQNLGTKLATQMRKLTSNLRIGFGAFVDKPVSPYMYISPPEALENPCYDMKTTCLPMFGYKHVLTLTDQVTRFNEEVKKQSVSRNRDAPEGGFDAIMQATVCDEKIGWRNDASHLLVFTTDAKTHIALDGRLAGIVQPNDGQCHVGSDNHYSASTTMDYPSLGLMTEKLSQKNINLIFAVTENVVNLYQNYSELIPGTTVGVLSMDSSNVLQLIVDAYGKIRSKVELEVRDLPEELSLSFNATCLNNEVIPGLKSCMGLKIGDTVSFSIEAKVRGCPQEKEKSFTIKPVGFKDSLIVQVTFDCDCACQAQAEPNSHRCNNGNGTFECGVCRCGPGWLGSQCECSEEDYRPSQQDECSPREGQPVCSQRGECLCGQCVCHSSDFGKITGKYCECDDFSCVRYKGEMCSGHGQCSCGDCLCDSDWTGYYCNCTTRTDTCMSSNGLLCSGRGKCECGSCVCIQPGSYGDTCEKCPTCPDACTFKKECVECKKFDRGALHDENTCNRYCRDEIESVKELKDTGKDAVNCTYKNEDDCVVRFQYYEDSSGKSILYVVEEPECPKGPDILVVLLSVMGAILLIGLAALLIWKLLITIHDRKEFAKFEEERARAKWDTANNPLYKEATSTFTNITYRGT
Sequence of Integrin alpha-IIb/beta-3 (Homo sapiens, UniProt P05106+P08514) (P08514 32-887 limits assumed): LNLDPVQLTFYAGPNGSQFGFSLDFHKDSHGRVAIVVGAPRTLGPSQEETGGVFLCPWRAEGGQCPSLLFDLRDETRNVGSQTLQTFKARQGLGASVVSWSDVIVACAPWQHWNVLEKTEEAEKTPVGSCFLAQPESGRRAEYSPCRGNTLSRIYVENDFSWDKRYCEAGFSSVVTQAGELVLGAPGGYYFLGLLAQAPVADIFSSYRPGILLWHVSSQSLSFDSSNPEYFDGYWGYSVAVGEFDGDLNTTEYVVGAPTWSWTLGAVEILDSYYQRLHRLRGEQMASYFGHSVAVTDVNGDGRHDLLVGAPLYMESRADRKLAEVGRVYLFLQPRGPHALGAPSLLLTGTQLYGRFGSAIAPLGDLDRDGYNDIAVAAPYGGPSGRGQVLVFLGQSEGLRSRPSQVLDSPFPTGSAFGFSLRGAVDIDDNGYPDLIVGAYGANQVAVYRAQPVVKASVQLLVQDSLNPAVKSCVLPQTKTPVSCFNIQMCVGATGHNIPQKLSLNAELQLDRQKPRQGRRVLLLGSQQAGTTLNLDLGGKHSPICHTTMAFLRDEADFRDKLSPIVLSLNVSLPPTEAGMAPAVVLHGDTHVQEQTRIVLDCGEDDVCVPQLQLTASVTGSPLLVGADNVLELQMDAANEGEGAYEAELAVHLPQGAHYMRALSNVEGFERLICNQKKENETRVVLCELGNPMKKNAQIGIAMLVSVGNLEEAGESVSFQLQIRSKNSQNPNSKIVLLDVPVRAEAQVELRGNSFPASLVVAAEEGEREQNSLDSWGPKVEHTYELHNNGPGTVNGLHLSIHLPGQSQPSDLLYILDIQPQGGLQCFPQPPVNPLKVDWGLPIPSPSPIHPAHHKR
Sequence of Integrin alpha-IIb/beta-3 (Homo sapiens, UniProt P05106+P08514) (P08514 891-1039 limits assumed): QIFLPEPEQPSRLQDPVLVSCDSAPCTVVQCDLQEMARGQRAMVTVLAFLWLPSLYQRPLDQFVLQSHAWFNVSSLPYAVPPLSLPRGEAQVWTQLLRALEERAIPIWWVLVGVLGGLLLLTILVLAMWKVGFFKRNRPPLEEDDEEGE
T1 sequence (P05106 27-788 limits assumed): as the sequence (P05106 27-788 limits assumed) above
T1 sequence (P06756 31-889 limits assumed): as the sequence (P06756 31-889 limits assumed) above
T1 sequence (P06756 891-1048 limits assumed): as the sequence (P06756 891-1048 limits assumed) above
T4 sequence (P05556 21-798 limits assumed): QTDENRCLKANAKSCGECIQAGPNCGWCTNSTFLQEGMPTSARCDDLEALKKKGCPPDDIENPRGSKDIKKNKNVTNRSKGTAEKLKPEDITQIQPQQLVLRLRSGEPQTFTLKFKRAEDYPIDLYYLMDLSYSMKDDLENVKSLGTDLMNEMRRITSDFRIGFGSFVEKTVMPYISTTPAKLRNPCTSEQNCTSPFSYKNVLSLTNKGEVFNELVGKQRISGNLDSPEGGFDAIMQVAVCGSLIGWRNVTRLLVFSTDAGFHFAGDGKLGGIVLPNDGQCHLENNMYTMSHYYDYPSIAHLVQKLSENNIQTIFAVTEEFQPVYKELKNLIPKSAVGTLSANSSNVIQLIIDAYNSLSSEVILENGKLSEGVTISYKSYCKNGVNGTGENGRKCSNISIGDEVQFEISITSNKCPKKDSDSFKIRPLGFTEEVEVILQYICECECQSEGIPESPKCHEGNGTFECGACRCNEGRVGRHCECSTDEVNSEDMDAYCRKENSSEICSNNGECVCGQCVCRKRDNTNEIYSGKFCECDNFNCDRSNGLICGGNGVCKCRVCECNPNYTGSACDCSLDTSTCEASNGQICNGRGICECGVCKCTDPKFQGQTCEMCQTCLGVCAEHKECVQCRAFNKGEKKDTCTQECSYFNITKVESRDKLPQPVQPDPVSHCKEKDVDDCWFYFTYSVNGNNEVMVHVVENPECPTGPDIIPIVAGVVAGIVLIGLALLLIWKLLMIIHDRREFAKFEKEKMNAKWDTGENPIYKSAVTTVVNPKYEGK
T4 sequence (P06756 31-889 limits assumed): as the sequence (P06756 31-889 limits assumed) above
T4 sequence (P06756 891-1048 limits assumed): as the sequence (P06756 891-1048 limits assumed) above

IC50 (Integrin alpha-V/beta-3 [1]): 2 nM | IC50 (Integrin alpha-V/beta-5 [2]): 1 nM
Compound: O=C(O)CC1CC(CNC(=O)CCCNc2ccccn2)=CCc2ccccc21 (stereo unspecified)

IC50 [3]: 0.3 nM | IC50 (Integrin alpha-V/beta-3 [4]): 0.033 nM
Compound: N=C(N)NCc1cccc(-c2ccc(C(=O)NC[C@H](NS(=O)(=O)c3ccccc3)C(=O)O)s2)c1

IC50 [3]: 0.2 nM | IC50 (Integrin alpha-V/beta-5 [5]): 60 nM | IC50 (Integrin alpha-5/beta-1 [6]): 20 nM | IC50 (Integrin alpha-V/beta-3 [4]): 3.5 nM
Compound: Cc1cc(C)c(S(=O)(=O)N[C@@H](CNC(=O)c2ccc(-c3cccc(CN=C(N)N)c3)s2)C(=O)O)c(C)c1

IC50 (Integrin alpha-V/beta-3 [7]): 1.6 nM | IC50 [3]: 257 nM | IC50 [8]: 18.1 nM | IC50 (Integrin alpha-5/beta-1 [9]): 316 nM | IC50 (Integrin alpha-V/beta-6): 11.7 nM | IC50 (Integrin alpha-V/beta-1 [10]): 10.4 nM | IC50 (Integrin alpha-V/beta-8): 1.71 nM
Compound: O=C(O)C[C@H](NC(=O)CNC(=O)c1cc(O)cc(NC2=NCC(O)CN2)c1)c1cc(Cl)cc(Br)c1O (stereo partly specified)

IC50 [3]: 380 nM | IC50 [8]: 1.5 nM | IC50 (Integrin alpha-5/beta-1 [9]): 64 nM | IC50 (Integrin alpha-V/beta-6): 1.13 nM | IC50 (Integrin alpha-V/beta-1 [10]): 1.59 nM | IC50 (Integrin alpha-V/beta-8): 0.65 nM
Compound: O=C(O)C[C@H](NC(=O)CNC(=O)c1cncc(N=C2NCC(O)CN2)c1)c1cc(Cl)cc(Br)c1O (stereo partly specified)

IC50 [3]: 1.5 nM
Compound: N=C(N)NCCC[C@@H]1NC(=O)CNC(=O)[C@H](CC(=O)O)N[C@H](C(=O)O)C[S+]([O-])CC(=O)N[C@H](Cc2ccc(O)cc2)C1=O (stereo partly specified)

IC50 [3]: 9 nM | IC50 (Integrin alpha-V/beta-1 [11]): 317 nM | IC50 (Integrin alpha-V/beta-5 [5]): 23 nM | IC50 (Integrin alpha-5/beta-1 [6]): 70000 nM | IC50 (Integrin alpha-V/beta-3 [1]): 10 nM | IC50 (Integrin alpha-V/beta-3 [4]): 120 nM
Compound: N=C(N)NCCCCC(=O)NCC(=O)NC(CC(=O)O)c1cccnc1 (stereo unspecified)

IC50 [3]: 67 nM | IC50 (Integrin alpha-V/beta-3 [1]): 52 nM
Compound: N=C(N)NCCC[C@H](NC(=O)OCc1ccccc1)[C@H]1CC[C@H](C(=O)NC[C@H](NC(=O)OCc2ccccc2)C(=O)O)O1

IC50 (Integrin alpha-V/beta-3 [1]): 1.35 nM | IC50 (Integrin alpha-V/beta-5 [2]): 1.02 nM
Compound: N=C(N)NCCCc1cn(CC(=O)N[C@@H](CC(=O)O)c2ccccc2)nn1

IC50 (Integrin alpha-5/beta-1 [12]): 421 nM | IC50 (Integrin alpha-V/beta-3 [1]): 3.2 nM | IC50 (Integrin alpha-V/beta-5 [2]): 1.7 nM
Compound: O=C(N[C@@H](CNC(=O)c1ccc(CN(Cc2nc3ccccc3[nH]2)C(=O)NC2CCCCC2)cc1)C(=O)O)OCc1ccccc1

IC50 (Integrin alpha-5/beta-1 [12]): 0.39 nM | IC50 (Integrin alpha-V/beta-3 [1]): 87 nM
Compound: C=Cc1cnc(NC[C@@H]2C[C@]3(CC(C(=O)NC[C@H](NS(=O)(=O)c4c(C)cc(C)cc4C)C(=O)O)=NO3)CN2C(=O)OCCCC)[nH]1

IC50 [13]: 21 nM | IC50 (Integrin alpha-V/beta-3 [14]): 2.3 nM
Compound: Cc1cc(C)c(S(=O)(=O)N[C@@H](CNC(=O)c2ccc3c(cnn3CCCNc3ncc[nH]3)c2)C(=O)O)c(C)c1

IC50 [13]: 12 nM | IC50 (Integrin alpha-V/beta-3 [14]): 8.5 nM
Compound: O=C(NC[C@H](NS(=O)(=O)c1c(Cl)cccc1Cl)C(=O)O)c1ccc2c(cnn2CCCNc2ncc[nH]2)c1
